Data set [1] is described as follows: Mouse liver microsomal stability of compound in microsomal protein, PBS buffer pH 7.4, NADPH, glucose-6-phosphate and glucose-6-phosphate dehydrogenase media. Aliquotes were taken at 5 time points and after stopping the reaction, supernatants were analyzed using HPLC coupled with a tandem mass spectrometer. The elimination constant, half-life, and intrinsic clearance are determined as results using linear regression analysis. The assay has been performed by Enamine biological services, Bienta Ltd.The protocol is publicly available: dx.doi.org/10.17504/protocols.io.5qpvokdb9l4o/v1. In kind it is ADME, microsomes, Microsome. The conditions noted are these: for half-life / microsomal CLint: liver microsomes; for CLint / Remaining / Remaining (without cofactor) / T1/2: microsomes. (In general: Microsomes from liver hold many membrane-bound enzymes, among them those of drug oxidation.)

The nature of data set [2]: Human liver microsomal stability of compound in microsomal protein, PBS buffer pH 7.4, NADPH, glucose-6-phosphate and glucose-6-phosphate dehydrogenase media. Aliquotes were taken at 5 time points and after stopping the reaction, supernatants were analyzed using HPLC coupled with a tandem mass spectrometer. The elimination constant, half-life, and intrinsic clearance are determined as results using linear regression analysis. The assay has been performed by Enamine biological services, Bienta Ltd.The protocol is publicly available: dx.doi.org/10.17504/protocols.io.5qpvokdb9l4o/v1. It counts as ADME, microsomes, Microsome. The conditions noted are these: for half-life / microsomal CLint: liver microsomes; for CLint / Remaining / Remaining (without cofactor) / T1/2: microsomes.

Values joined by “and” are separate entries in the source; they are usually repeats but may differ in a detail not shown here. Equal entries are not always repeated.
For Remaining (without cofactor) in this document: time not given here.
For Remaining in this document: time not given here.

As for `CC(C)[C@@H](Nc1ncnc2[nH]ccc12)c1ccc2c(c1)NC(=O)CO2`, in data set [1], the half-life (as a rule, the time needed for the level to fall by half in the phase considered) came out at 21.4 min; the microsomal CLint (as a rule, the capacity of the preparation to metabolise the compound, expressed as a volume cleared per time) is 78 µL/min/mg; the CLint was 80 µL/min/mg; the Remaining was 27% and 26%. Besides, in data set [1], the “Remaining (without cofactor)” value was 93% and 110%; the T1/2 stood at 20.9 min. In addition, in data set [2], the half-life amounted to 79 min; the intrinsic clearance (microsomal CLint) was determined as 21 µL/min/mg; the CLint was 31 µL/min/mg; the Remaining was 73% and 56%. In addition, in data set [2], the “Remaining (without cofactor)” value is 105% and 92%; the T1/2 is recorded as 54.3 min.

`CNC(=O)c1c[nH]c2ncnc(N[C@@H](c3ccc4c(c3)OCCO4)C(C)C)c12`: in data set [1], the half-life was determined as 19 min, the microsomal CLint was found to be 88 µL/min/mg, the Remaining was 20% and the “Remaining (without cofactor)” value amounted to 95%. In addition, in data set [2], the half-life was determined as 21.2 min, the microsomal CLint came out at 79 µL/min/mg, the Remaining was 27% and the “Remaining (without cofactor)” value came to 113%.

With `CC(C)[C@@H](Nc1ncnc2[nH]c(-c3cnn(CC(N)=O)c3)cc12)c1ccc2c(c1)NC(=O)CO2`, in data set [1], the half-life was 156 min, the microsomal CLint is 11 µL/min/mg, the Remaining stood at 84% and the “Remaining (without cofactor)” value is recorded as 102%. Also, in data set [2], the half-life was found to be 99.2 min, the microsomal CLint stood at 17 µL/min/mg, the Remaining was found to be 73% and the “Remaining (without cofactor)” value came to 91%.

Consider `Cc1nn(C)cc1-c1cc2c(N[C@H](c3ccc4c(c3)S(=O)(=O)CCC4)C(C)C)ncnc2[nH]1`, for which, in data set [1], the half-life was determined as 8.3 min, the microsomal CLint was 202 µL/min/mg, the Remaining is 4% and the “Remaining (without cofactor)” value is 104%. Further, in data set [2], the half-life was found to be 6.1 min, the intrinsic metabolic clearance (microsomal CLint) worked out at 273 µL/min/mg, the Remaining came to 1% and the “Remaining (without cofactor)” value is listed as 113%.

For the compound `CC(C)[C@@H](Nc1ncnc2[nH]c(-c3cnn(C)c3)cc12)c1ccc2c(c1)S(=O)(=O)NCC2`, in data set [1], the half-life came out at 19.1 min, the microsomal CLint was found to be 87 µL/min/mg, the Remaining was found to be 23% and the “Remaining (without cofactor)” value was found to be 92%. Further, in data set [2], the half-life was 13.9 min, the microsomal CLint worked out at 120 µL/min/mg, the Remaining was found to be 13% and the “Remaining (without cofactor)” value came to 98%.

On to `CCNC(=O)c1cc2c(N[C@@H](c3ccc4c(c3)OCCO4)C(C)C)ncnc2[nH]1`, for which, in data set [1], the half-life was 19 min; the microsomal CLint turned out to be 88 µL/min/mg; the CLint worked out at 72 µL/min/mg; the Remaining is 24% and 29%. In addition, in data set [1], the “Remaining (without cofactor)” value is 109% and 92%; the T1/2 was 23.2 min. Further, the “Remaining (without cofactor)” value in data set [2] is 103% and 97%.

As to `CC(C)[C@@H](Nc1ncnc2[nH]c(-c3cnn(C)c3C#N)cc12)c1ccc2c(c1)OCCO2`, in data set [1], the half-life worked out at 7.7 min; the microsomal CLint came out at 218 µL/min/mg; the CLint was 129 µL/min/mg; the Remaining was 3% and 13%. In addition, in data set [1], the “Remaining (without cofactor)” value is 97% and 106%; the T1/2 is recorded as 13 min. Further, in data set [2], the half-life was determined as 22.6 min; the microsomal CLint came to 74 µL/min/mg; the CLint was found to be 47 µL/min/mg; the Remaining is 25% and 46%. In addition, in data set [2], the “Remaining (without cofactor)” value was 111% and 101%; the T1/2 is on record as 35.4 min.

Turning to `CC(C)(C)[C@@H](Nc1ncnc2[nH]c(-c3cnn(CC(N)=O)c3)cc12)c1ccc2c(n1)OCCO2`, in data set [1], the half-life was found to be 53.1 min; the intrinsic metabolic clearance (microsomal CLint) was 31 µL/min/mg; the CLint amounted to 30 µL/min/mg; the Remaining was 60% and 59%. Besides, in data set [1], the “Remaining (without cofactor)” value is 90% and 109%; the T1/2 amounted to 56.2 min. Further, in data set [2], the half-life is 46 min; the intrinsic clearance (microsomal CLint) was 36 µL/min/mg; the CLint stood at 42 µL/min/mg; the Remaining is 55% and 49%. In data set [2], the “Remaining (without cofactor)” value was 96% and 107%; the T1/2 was determined as 39.8 min.

With `CNC(=O)c1cc2c(N[C@@H](c3ccc4c(c3)S(=O)(=O)CCC4)C(C)C)ncnc2[nH]1`, in data set [1], the half-life is 36.5 min; the microsomal CLint was 46 µL/min/mg; the CLint was found to be 23 µL/min/mg; the Remaining is 47% and 69%. Besides, in data set [1], the “Remaining (without cofactor)” value is 100% and 97%; the T1/2 is on record as 71.6 min. Further, in data set [2], the Remaining is 25% and 0%; the “Remaining (without cofactor)” value was 101% and 94%.

Turning to `CC(C)[C@@H](Nc1ncnc2[nH]cc(C(=O)NC3CC3)c12)c1ccc2c(c1)S(=O)(=O)CCC2`, in data set [1], the Remaining is 2% and 0%; the “Remaining (without cofactor)” value was 101% and 102%. Also, the “Remaining (without cofactor)” value in data set [2] was 90% and 111%.

Consider `CC(C)[C@H](Nc1ncnc2[nH]cc(C(=O)NC3CC3)c12)c1ccc2c(c1)S(=O)(=O)CCC2`, for which, in data set [1], the half-life came to 39.5 min, the microsomal CLint was determined as 42 µL/min/mg, the Remaining stood at 50% and the “Remaining (without cofactor)” value was 102%. Also, in data set [2], the half-life came out at 320 min, the intrinsic clearance (microsomal CLint) amounted to 5 µL/min/mg, the Remaining turned out to be 90% and the “Remaining (without cofactor)” value is listed as 112%.

Consider `CC(C)[C@@H](Nc1ncnc2[nH]c(-c3cncc(S(C)(=O)=O)c3)cc12)c1ccc2c(c1)S(=O)(=O)CCC2`, for which, in data set [1], the half-life stood at 6.1 min, the microsomal CLint was 272 µL/min/mg, the Remaining is given as 1% and the “Remaining (without cofactor)” value was found to be 112%. Further, in data set [2], the half-life was determined as 2.6 min, the microsomal CLint came out at 635 µL/min/mg, the Remaining stood at 1% and the “Remaining (without cofactor)” value stood at 104%.

With `CC(C)[C@@H](Nc1ncnc2[nH]c(-c3cnn(CC(=O)N(C)C)c3)cc12)c1ccc2c(c1)OCCO2`, in data set [1], the half-life was found to be 28.1 min; the microsomal CLint stood at 59 µL/min/mg; the CLint was 45 µL/min/mg; the Remaining was 39% and 48%. Moreover, in data set [1], the “Remaining (without cofactor)” value is 98% and 114%; the T1/2 stood at 36.8 min. In data set [2], the half-life worked out at 11.8 min; the microsomal CLint amounted to 142 µL/min/mg; the CLint turned out to be 108 µL/min/mg; the Remaining is 9% and 18%. Moreover, in data set [2], the “Remaining (without cofactor)” value is 110% and 114%; the T1/2 was found to be 15.4 min.

Regarding `C[C@H](C(=O)O)[C@@H](NC(=O)c1ncnc2[nH]ccc12)c1ccc(Br)cc1`, in data set [1], the half-life turned out to be 380 min, the intrinsic clearance (microsomal CLint) is 4 µL/min/mg, the Remaining is 111.226% and the “Remaining (without cofactor)” value turned out to be 100.245%. Besides, in data set [2], the half-life amounted to 574 min, the microsomal CLint is 3 µL/min/mg, the Remaining is 92.211% and the “Remaining (without cofactor)” value came to 101.611%.

Turning to `CC(C)[C@H](Nc1ncnc2[nH]c(-c3cnn(CC(=O)N(C)C)c3)cc12)c1ccc2c(c1)OCCO2`, in data set [1], the half-life worked out at 48.1 min, the microsomal CLint turned out to be 35 µL/min/mg, the Remaining came out at 54% and the “Remaining (without cofactor)” value is 102%. In addition, in data set [2], the half-life was 3.3 min, the intrinsic clearance (microsomal CLint) is 500 µL/min/mg, the Remaining came to 0% and the “Remaining (without cofactor)” value is on record as 115%.

Regarding `CNC(=O)c1cc2c(N[C@@H](c3ccc4c(c3)OCCO4)C(C)C)ncnc2[nH]1`, in data set [1], the half-life stood at 30.5 min, the microsomal CLint worked out at 55 µL/min/mg, the Remaining is listed as 43% and the “Remaining (without cofactor)” value is 112%. In addition, in data set [2], the half-life was determined as 21.1 min, the intrinsic metabolic clearance (microsomal CLint) was 79 µL/min/mg, the Remaining is reported as 23% and the “Remaining (without cofactor)” value is reported as 92%.

For the compound `CNC(=O)c1cccc(-c2cc3c(N[C@H](c4ccc5c(c4)S(=O)(=O)CCC5)C(C)C)ncnc3[nH]2)c1`, in data set [1], the half-life was determined as 8.5 min, the intrinsic metabolic clearance (microsomal CLint) was determined as 197 µL/min/mg, the Remaining is 4% and the “Remaining (without cofactor)” value amounted to 106%. In data set [2], the half-life was found to be 2.2 min, the microsomal CLint was found to be 746 µL/min/mg, the Remaining is recorded as 0% and the “Remaining (without cofactor)” value is 99%.

`CNC(=O)c1cccc(-c2cc3c(N[C@@H](c4ccc5c(c4)S(=O)(=O)CCC5)C(C)C)ncnc3[nH]2)c1`: in data set [1], the half-life amounted to 1.9 min, the microsomal CLint came out at 882 µL/min/mg, the Remaining was 1% and the “Remaining (without cofactor)” value was determined as 101%. Also, in data set [2], the half-life was determined as 3.7 min, the intrinsic metabolic clearance (microsomal CLint) amounted to 455 µL/min/mg, the Remaining worked out at 0% and the “Remaining (without cofactor)” value is given as 93%.

For the compound `CC(C)[C@H](Nc1ncnc2[nH]c(-c3cnn(CC(N)=O)c3)cc12)c1ccc2c(c1)OCCO2`, in data set [1], the half-life is 104 min, the microsomal CLint was 16 µL/min/mg, the Remaining is reported as 80% and the “Remaining (without cofactor)” value is listed as 104%. In data set [2], the half-life amounted to 35.4 min, the intrinsic clearance (microsomal CLint) came out at 47 µL/min/mg, the Remaining is listed as 43% and the “Remaining (without cofactor)” value worked out at 102%.

`CNC(=O)c1cc2c(N[C@H](c3ccc4c(c3)S(=O)(=O)CCC4)C(C)C)ncnc2[nH]1`: in data set [1], the half-life came out at 35.3 min, the microsomal CLint was 47 µL/min/mg, the Remaining came out at 42% and the “Remaining (without cofactor)” value is reported as 106%. In data set [2], the half-life amounted to 25 min, the microsomal CLint is 67 µL/min/mg, the Remaining is reported as 33% and the “Remaining (without cofactor)” value is reported as 107%.
